This note sets out measurements from patent US12178223B2, “Insect life cycle interruption agent(LCIA) formulations and their manufacture and use” (priority 2020, dated 2024).

For series [1], the system named is young fly larvae (stage 1). In words: Insecticidal activity in manure of hens fed Cyromazine products (Example 14). Format: in vivo. The note with it: Cyromazine in feed 5 PPM. As to the method:
(§1) Twenty four Lohman laying hens were placed in conventional layer cages (2 birds per cage) and divided into 6 experimental groups of 4 birds per group.
(§2) The hens were fed for three weeks with laying hens feed (17.5% protein, no AGP) supplemented with a Cyromazine product as summarized in Table 12.
After three weeks of feeding according to the experimental groups of example 3, manure was collected from each group of hens. The manure was frozen for 48 hours to destroy any insects present and then thawed.
For each experimental group, 5 cups containing 100 g thawed manure were prepared (70-75% moisture). Each cup represents a group replicate.
Thirty young fly larvae (stage 1) were placed in each cup and incubated in an insectarium for 10 days. After ten days the pupae/larvae/flies were counted. Analysis of variance was done using a One Way Anova test and the comparison of means was done with Tukey-Kramer test, significance level-α=0.05.

Series [2] is described as follows: Cyromazine residue in eggs (Example 15). On the set-up: species or system Lohman laying hens. The note with it: female, Lohman, chicken, in vivo.
Excerpt: as §1, §2
After four weeks of feeding according to the experimental groups of example 13, eggs were collected.
For each treatment 16 eggs were collected (4 eggs from each hen). The contents of the 4 eggs (without the shell) of each bird were pooled in one container marked to indicate the treatment. Each container was a sample. A total of 4 tests were performed for each treatment. The containers were packed in a temperature-controlled pack that was sent for Cyromazine analysis to Eurofines laboratory in Germany.
Samples are weighed and one or more samples is spiked with an internal standard.
Acetonitrile is added and the sample is vortexed. Petroleum ether is added and a liquid/liquid extraction is performed in a shaker followed by centrifugation. An aliquot of the acetonitrile phase is removed and reduced in volume to near dryness then resolved by adding water and methanol. The mixture is vortexed then filtered by membrane filter and analyzed—Liquid chromatographic determination with LC-MS/MS. Quantitation is via comparison with samples spiked with an internal standard.

Values joined by “and” are separate entries in the source; they are usually repeats but may differ in a detail not shown here. Equal entries are not always repeated. Marks after values point to notes of the source that are not given here.

Take `Nc1nc(N)nc(NC2CC2)n1` [NGNEC, Cyromazine]: in series [1], the “Dead larvae and pupas %” value came out at 0%; the Normal pupa % is given as 0^b %; the “Survival rate = (No of flies + normal pupas)/30*100” value is 0% and 0^b %. Moreover, the Flies % in series [1] (10 days) is reported as 0^b %. In series [2], this compound had a concentration at 4 weeks of 88 ng/g. Further, in series [2] (4 weeks), the “Cyromazine in eggs, % of Larvadex 0.5% group” value was determined as 102%.
